Key:
MRSA COL (MB5393) [1] = test: TarO Inhibitor/β-Lactam Synergy Assay (growth, OD600); assay type: cell-based, Staphylococcus aureus; conditions: for MITC95 TarO inhibitor + 4 μg/mL IPM; Bacteria: SA_MB5393: in combination with 4 μg/mL imipenem (IPM); for MITC95 TarO inhibitor + 8 μg/mL DCX; Bacteria: SA_MB5393: in combination with 8 μg/mL dicloxacillin (DCX)
Description: The TarO inhibitor/β-lactam synergy assay was performed to measure the re-sensitization of methicillin-resistant Staphylococci bacteria (MB5393: MRSA COL) to β-lactam antibiotics by TarO inhibitors. MRSA COL is a hospital-acquired penicillinase-negative clinically isolated strain commonly used in Staphylococcus aureus studies and is fully resistant to the antimicrobial bioactivity of β-lactam antibiotics, including but not limited to imipenem and dicloxacillin. […] MRSA COL is fully refractory to β-lactam antibiotic effect at the current clinical breakpoint concentrations and as such MRSA COL is fully viable at these concentrations.
The β-lactam antibiotic concentration was fixed at the clinical breakpoint (imipenem 4 μg/ml or dicloxacillin 8 μg/ml) and the TarO inhibitors were titrated by 2 fold starting from the highest concentration of 200 μM with final DMSO concentration of 2% in the assay. 5×10^5 colony forming unit of MRSA COL in cation-adjusted Mueller Hinton broth (CAMHB) was then mixed and the assay plate was incubated for 20 hours at 37° C. without shaking. After 20 hours, the optical density at 600 nm (OD600) was read for all wells to determine relative growth of MRSA COL.

MRSA COL (MB5393) [2] = test: as above; assay type: cell-based; conditions: Staphylococcus aureus, TarO inhibitor alone, >200 μM = 95% growth inhibition not achieved, 20 hours at 37° C., read-out: MITC95 TarO inhibitor alone, Bacteria: SA_MB5393

Row | SMILES | MITC95 TarO inhibitor + 4 μg/mL IPM; Bacteria: SA_MB5393 (MRSA COL (MB5393) [1]) [µM] | MITC95 TarO inhibitor + 8 μg/mL DCX; Bacteria: SA_MB5393 (MRSA COL (MB5393) [1]) [µM] | IC95 (MRSA COL (MB5393) [2]) [µM]
1 | O=C(CCc1cncc2ccccc12)N1CC(c2cccc(F)c2F)OC1=O (centres unmarked) [Example 86, 5-(2,3-difluorophenyl)-3-(3-isoquinolin-4-ylpropanoyl)-1,3-oxazolidin-2-one] | 1.41 | 8.33 | > 200
2 | Cc1cccnc1CCNC(=O)N1C(=O)O[C@H](c2cc(C(F)(F)F)cc(C(F)(F)F)c2)[C@@H]1C [Example 41, (4S,5R)-5-[3,5-bis(trifluoromethyl)phenyl]-4-methyl-N-[2-(3-methylpyridin-2-yl)ethyl]-2-oxo-1,3-oxazolidine-3-carboxamide] | 1.56 | 16.67 | > 200
3 | C[C@H]1[C@@H](c2cccc(Br)n2)OC(=O)N1C(=O)CCc1cccc2ccccc12 [Example 84, (4S,5S)-5-(6-bromopyridin-2-yl)-4-methyl-3-(3-naphthalen-1-ylpropanoyl)-1,3-oxazolidin-2-one] | 1.56 | 100 | > 200
4 | COc1cccc(CNC(=O)N2C(=O)O[C@H](c3cc(C(F)(F)F)cc(C(F)(F)F)c3)[C@@H]2CO)c1OC [Example 52, (4S,5R)-5-[3,5-bis(trifluoromethyl)phenyl]-N-(2,3-dimethoxybenzyl)-4-(hydroxymethyl)-2-oxo-1,3-oxazolidine-3-carboxamide] | 0.03 | 0.06 | > 200
5 | Cc1cc(F)cc([C@H]2OC(=O)N(C(=O)CCc3cncc4ccccc34)[C@H]2C)c1 [Example 79, (4S,5R)-5-(3-fluoro-5-methylphenyl)-3-(3-isoquinolin-4-ylpropanoyl)-4-methyl-1,3-oxazolidin-2-one] | 1.17 | 12.50 | > 200
6 | C[C@H]1[C@@H](c2cc(F)cc(C(F)(F)F)c2)OC(=O)N1C(=O)NCc1cccc2ccccc12 [Example 6, (4S,5R)-5-[3-fluoro-5-(trifluoromethyl)phenyl]-4-methyl-N-(naphthalen-1-ylmethyl)-2-oxo-1,3-oxazolidine-3-carboxamide] | 0.01 | 0.02 | > 200
7 | C[C@H]1[C@@H](c2cc(F)cc(C(F)(F)F)c2)OC(=O)N1C(=O)NCc1cccc2nccnc12 [Example 22, (4S,5R)-5-[3-fluoro-5-(trifluoromethyl)phenyl]-4-methyl-2-oxo-N-(quinoxalin-5-ylmethyl)-1,3-oxazolidine-3-carboxamide] | 0.49 | 6.25 | > 200
8 | O=C(NCc1cccc2cncnc12)N1C(=O)O[C@H](c2cc(C(F)(F)F)cc(C(F)(F)F)c2)[C@@H]1CO [Example 54, (4S,5R)-5-[3,5-bis(trifluoromethyl)phenyl]-4-(hydroxymethyl)-2-oxo-N-(quinazolin-8-yl-methyl)-1,3-oxazolidine-3-carboxamide] | 0.20 | 0.65 | > 200
9 | C[C@H]1[C@@H](c2cc(F)cc(C(F)(F)F)c2)OC(=O)N1C(=O)NCc1cncc2ccccc12 [Example 48, (4S,5R)-5-[3-fluoro-5-(trifluoromethyl)phenyl]-N-(isoquinolin-4-ylmethyl)-4-methyl-2-oxo-1,3-oxazolidine-3-carboxamide] | 0.13 | 0.39 | > 200
10 | C[C@H]1[C@@H](c2cc(C(F)(F)F)cc(C(F)(F)F)c2)OC(=O)N1C(=O)NCc1cccc2nccnc12 [Example 10, (4S,5R)-5-[3,5-bis (trifluoromethyl)phenyl]-4-methyl-2-oxo-N-(quinoxalin-5-ylmethyl)-1,3-oxazolidine-3-carboxamide] | 0.06 | 0.37 | > 200
11 | CC[C@H]1[C@@H](c2cc(C(F)(F)F)cc(C(F)(F)F)c2)OC(=O)N1C(=O)CCc1cncc2ccccc12 [Example 83, (4S,5R)-5-[3,5-bis(trifluoromethyl)phenyl]-4-ethyl-3-(3-isoquinolin-4-ylpropanoyl)-1,3-oxazolidin-2-one] | 0.06 | 0.59 | > 200
12 | C[C@H]1[C@@H](c2cc(C(F)(F)F)cc(C(F)(F)F)c2)OC(=O)N1C(=O)CCc1cccc2ccncc12 [Example 75, (4S,5R)-5-[3,5-bis(trifluoromethyl)phenyl]-3-(3-isoquinolin-8-ylpropanoyl)-4-methyl-1,3-oxazolidin-2-one] | 0.13 | 0.78 | > 200
13 | C[C@H]1[C@@H](c2cc(F)cc(C(F)(F)F)c2)OC(=O)N1C(=O)NCc1cccc2c1OCCO2 [Example 11, (4S,5R)-N-(2,3-dihydro-1,4-benzodioxin-5-ylmethyl)-5-[3-fluoro-5-(trifluoromethyl)phenyl]-4-methyl-2-oxo-1,3-oxazolidine-3-carboxamide] | 0.13 | 1.42 | > 200
14 | C[C@H]1[C@@H](c2cc(F)cc(C(F)(F)F)c2)OC(=O)N1C(=O)NCc1ccccc1OC(F)F [Example 5, (4S,5R)-N-[2-(difluoromethoxy)benzyl]-5-[3-fluoro-5-(trifluoromethyl)phenyl]-4-methyl-2-oxo-1,3-oxazolidine-3-carboxamide] | 0.09 | 0.71 | > 200
15 | O=C(CCc1cncc2ccccc12)N1CC(c2cc(C(F)(F)F)cc(C(F)(F)F)c2)OC1=O (centres unmarked) [Example 76, 5-[3,5-bis(trifluoromethyl)phenyl]-3-(3-isoquinolin-4-ylpropanoyl)-1,3-oxazolidin-2-one] | 0.39 | – | > 200
16 | C[C@H]1[C@@H](c2cc(F)cc(C(F)(F)F)c2)OC(=O)N1C(=O)CCc1cncc2ccccc12 [Example 70, (4S,5R)-5-[3-fluoro-5-(trifluoromethyl)phenyl]-3-(3-isoquinolin-4-ylpropanoyl)-4-methyl-1,3-oxazolidin-2-one] | 0.19 | 0.91 | > 200
17 | C[C@H]1[C@@H](c2cc(N(C)C)cc(C(F)(F)F)c2)OC(=O)N1C(=O)NCc1cncc2ccccc12 [Example 98, (4S,5R)-5-[3-(dimethylamino)-5-(trifluoromethyl)phenyl]-N-(isoquinolin-4-ylmethyl)-4-methyl-2-oxo-1,3-oxazolidine-3-carboxamide] | 0.01 | 0.41 | > 200
18 | C[C@H]1[C@@H](c2cc(F)cc(C(F)(F)F)c2)OC(=O)N1C(=O)NCc1cccc(N(C)C)c1 [Example 9, (4S,5R)-N-[3-(dimethylamino)benzyl]-5-[3-fluoro-5-(trifluoromethyl)phenyl]-4-methyl-2-oxo-1,3-oxazolidine-3-carboxamide] | 0.22 | 1.65 | > 200
19 | C[C@H]1[C@@H](c2cc(N3CCC(F)(F)C3)cc(C(F)(F)F)c2)OC(=O)N1C(=O)NCc1cccc2cncnc12 [Example 97, (4S,5R)-5-(3-(3,3-difluoropyrrolidin-1-yl)-5-(trifluoromethyl)phenyl)-4-methyl-2-oxo-N-(quinazolin-8-ylmethyl)oxazolidine-3-carboxamide] | 0.42 | 3.32 | > 200
20 | C[C@H]1[C@@H](c2cc(F)cc(C(F)(F)F)c2)OC(=O)N1C(=O)NCc1ccccc1S(C)(=O)=O [Example 44, (4S,5R)-5-[3-fluoro-5-(trifluoromethyl)phenyl]-4-methyl-N-[2-(methylsulfonyl)benzyl]-2-oxo-1,3-oxazolidine-3-carboxamide] | 12.50 | 25 | > 200
21 | C[C@H]1[C@@H](c2cc(F)cc(C(F)(F)F)c2)OC(=O)N1C(=O)NCc1nccc2sccc12 [Example 14, (4S,5R)-5-[3-fluoro-5-(trifluoromethyl)phenyl]-4-methyl-2-oxo-N-(thieno[3,2-c]pyridin-4-ylmethyl)-1,3-oxazolidine-3-carboxamide] | 0.49 | 5.63 | > 200
22 | COc1cc([C@H]2OC(=O)N(C(=O)NCc3cncc4cccnc34)[C@H]2CO)cc(C(F)(F)F)c1 [Example 51, (4S,5R)-4-(hydroxymethyl)-5-[3-methoxy-5-(trifluoromethyl)phenyl]-N-(1,6-naphthyridin-8-yl-methyl)-2-oxo-1,3-oxazolidine-3-carboxamide] | 1.56 | 8.33 | > 200

Reference: US11141410B2 (MERCK SHARP & DOHME CORP., priority 2015, dated 2021)
